Read-outs that look alike come from different tables or passages of the source.
Key:
[1] = test system: HOP-92 non-small cell lung cancer cell line; experiment: NCI five-dose testing; format: cell-based; conditions: HOP-92
Method: (§1) Screening against the cancer cell lines was carried out at the National Cancer Institute (NCI, Bethesda, Maryland, USA) applying the standard protocol of the NCI[22].

[2] = test system: A498 renal cancer cell line; experiment: NCI five-dose testing; format: cell-based; conditions: A498
Method: as §1

[3] = test system: U251 CNS cancer cell line; experiment: NCI five-dose testing; format: cell-based
Method: as §1

[4] = test system: SK-MEL-5 melanoma cell line; experiment: NCI five-dose testing; format: cell-based; conditions: SK-MEL-5
Method: as §1

[5] = test system: PC-3 prostate cancer cell line; experiment: NCI five-dose testing; format: cell-based; conditions: PC-3
Method: as §1

[6] = test system: K-562 leukaemia cell line; experiment: NCI five-dose testing; format: cell-based; conditions: K-562
Method: as §1

[7] = test system: OVCAR-4 ovarian cancer cell line; experiment: NCI five-dose testing; format: cell-based; conditions: OVCAR-4
Method: as §1

[8] = test system: HT-29 colon cancer cell line; experiment: NCI five-dose testing; format: cell-based; conditions: HT-29
Method: as §1

[9] = test system: MDA-MB-468 breast cancer cell line; experiment: NCI five-dose testing; format: cell-based; conditions: MDA-MB-468
Method: as §1

renal cancer cell lines = experiment: NCI five-dose testing, subpanel mean; format: cell-based; conditions: subpanel VII: renal cancer
Method: as §1

[10] = test system: non-small cell lung cancer cell lines; experiment: NCI five-dose testing, subpanel mean; format: cell-based; conditions: subpanel II: non-small cell lung cancer
Method: as §1

Leukaemia cell lines = experiment: NCI five-dose testing, subpanel mean; format: cell-based; conditions: subpanel I: Leukaemia
Method: as §1

breast cancer cell lines = experiment: NCI five-dose testing, subpanel mean; format: cell-based; conditions: subpanel IX: breast cancer
Method: as §1

melanoma cell lines = experiment: NCI five-dose testing, subpanel mean; format: cell-based; conditions: subpanel V: melanoma
Method: as §1

CNS cancer cell lines = experiment: NCI five-dose testing, subpanel mean; format: cell-based; conditions: subpanel IV: CNS cancer
Method: as §1

colon cancer cell lines = experiment: NCI five-dose testing, subpanel mean; format: cell-based; conditions: subpanel III: colon cancer
Method: as §1

[11] = test system: prostate cancer cell lines; experiment: NCI five-dose testing, subpanel mean; format: cell-based; conditions: subpanel VIII: prostate cancer
Method: as §1

[12] = test system: ovarian cancer cell lines; experiment: NCI five-dose testing, subpanel mean; format: cell-based; conditions: subpanel VI: ovarian cancer
Method: as §1

Plasma stability = format: in vitro ADME; conditions: 37 °C, 10 µM
Method: About 10 µM of compound 2l was mixed with human plasma and rat plasma and the mixture was shaked at 37 °C for 30 min and 120 min. After each time interval, acetonitrile was added and the mixture was centrifugated (14000 rpm, 4 °C). The supernatant was injected into the LC-MS to detect the remaining amount of compound 2l.

[13] = read-out: TGI (total growth inhibition concentration)

COc1cccc(-c2nn(-c3ccccc3)cc2-c2ccnc(NCCNS(=O)(=O)c3ccccc3)c2)c1 [Compound 1a, N-(2-((4-(3-(3-methoxyphenyl)-1-phenyl-1H-pyrazol-4-yl)pyridin-2-yl)amino)ethyl) benzenesulfonamide]
melting point: 104 to 106 °C

COc1cccc(-c2nn(-c3ccccc3)cc2-c2ccnc(NCCNS(=O)(=O)c3ccc(Cl)cc3)c2)c1 [Compound 1c, 4-Chloro-N-(2-((4-(3-(3-methoxyphenyl)-1-phenyl-1H-pyrazol-4-yl)pyridin-2-yl)amino)ethyl) benzenesulfonamide]
IC50 [1]: 2.46 µM
LD50 (lethal dose 50) [1]: >100 µM
IC (TGI) [1, 13]: 9.4 µM
IC50 [2]: 4.56 µM
LD50 (lethal dose 50) [2]: >100 µM
IC (TGI) [2, 13]: >100 µM
LD50 (lethal dose 50) ([3]; U251): >100 µM
IC50 ([3]; U251, read-out: IC50): 5.89 µM
IC (TGI) ([3]; U251, read-out: TGI (total growth inhibition concentration)): >100 µM
IC50 [4]: 1.95 µM
LD50 (lethal dose 50) [4]: 7.7 µM
IC (TGI) [4, 13]: 3.8 µM
LD50 (lethal dose 50) [5]: >100 µM
IC50 ([5]; read-out: IC50): 2.44 µM
IC (TGI) [5, 13]: >100 µM
IC50 [6]: 3.73 µM
LD50 (lethal dose 50) [6]: >100 µM
IC (TGI) [6, 13]: >100 µM
IC50 [7]: 4.15 µM
LD50 (lethal dose 50) [7]: >100 µM
IC (TGI) [7, 13]: >100 µM
LD50 (lethal dose 50) [8]: >100 µM
IC50 ([8]; read-out: IC50): 3.37 µM
IC (TGI) [8, 13]: 11.3 µM
IC50 [9]: 3.9 µM
LD50 (lethal dose 50) [9]: >100 µM
IC (TGI) [9, 13]: >100 µM
IC50 (renal cancer cell lines): 4.79 µM
IC50 [10]: 6.02 µM
IC50 (Leukaemia cell lines): 2.89 µM
IC50 (breast cancer cell lines): 3.79 µM
IC50 (melanoma cell lines): 4.58 µM
IC50 (CNS cancer cell lines): 6.33 µM
IC50 (colon cancer cell lines): 4.08 µM
IC50 [11]: 4.99 µM
IC50 [12]: 5.23 µM

COc1ccc(S(=O)(=O)NCCNc2cc(-c3cn(-c4ccccc4)nc3-c3cccc(OC)c3)ccn2)cc1 [Compound 1e, 4-Methoxy-N-(2-((4-(3-(3-methoxyphenyl)-1-phenyl-1H-pyrazol-4-yl)pyridin-2-yl)amino)ethyl)benzenesulfonamide]
melting point: 144 to 146 °C

COc1cccc(-c2nn(-c3ccccc3)cc2-c2ccnc(NCCNS(=O)(=O)c3ccc(C)cc3)c2)c1 [Compound 1f, N-(2-((4-(3-(3-Methoxyphenyl)-1-phenyl-1H-pyrazol-4-yl)pyridin-2-yl)amino)ethyl)-4-methylbenzenesulfonamide]
melting point: 150 to 152 °C

COc1cccc(-c2nn(-c3ccccc3)cc2-c2ccnc(NCCNS(=O)(=O)c3cccc(F)c3)c2)c1 [Compound 1h, 3-Fluoro-N-(2-((4-(3-(3-methoxyphenyl)-1-phenyl-1H-pyrazol-4-yl)pyridin-2-yl)amino)ethyl)benzenesulfonamide]
melting point: 118 to 120 °C

COc1cccc(-c2nn(-c3ccccc3)cc2-c2ccnc(NCCNS(=O)(=O)c3cccc4ccccc34)c2)c1 [Compound 1i, N-(2-((4-(3-(3-Methoxyphenyl)-1-phenyl-1H-pyrazol-4-yl)pyridin-2-yl)amino)ethyl)naphthalene-1-sulfonamide]
melting point: 178 to 180 °C

O=S(=O)(NCCNc1cc(-c2cn(-c3ccccc3)nc2-c2cccc(O)c2)ccn1)c1ccccc1 [Compound 1j, N-(2-((4-(3-(3-Hydroxyphenyl)-1-phenyl-1H-pyrazol-4-yl)pyridin-2-yl)amino)ethyl) benzenesulfonamide]
melting point: 100 to 102 °C

Cc1ccc(S(=O)(=O)NCCNc2cc(-c3cn(-c4ccccc4)nc3-c3cccc(O)c3)ccn2)cc1 [Compound 1n, N-(2-((4-(3-(3-Hydroxyphenyl)-1-phenyl-1H-pyrazol-4-yl)pyridin-2-yl)amino)ethyl)-4-methylbenzenesulfonamide]
melting point: 114 to 116 °C

O=S(=O)(NCCNc1cc(-c2cn(-c3ccccc3)nc2-c2cccc(O)c2)ccn1)c1cccc(F)c1 [Compound 1p, 3-Fluoro-N-(2-((4-(3-(3-hydroxyphenyl)-1-phenyl-1H-pyrazol-4-yl)pyridin-2-yl)amino)ethyl)benzenesulfonamide]
melting point: 146 to 148 °C

O=S(=O)(NCCNc1cc(-c2cn(-c3ccccc3)nc2-c2cccc(O)c2)ccn1)c1cccc2ccccc12 [Compound 1q, N-(2-((4-(3-(3-Hydroxyphenyl)-1-phenyl-1H-pyrazol-4-yl)pyridin-2-yl)amino)ethyl)naphthalene-1-sulfonamide]
melting point: 146 to 148 °C

COc1cccc(-c2nn(-c3ccccc3)cc2-c2ccnc(NCCCNS(=O)(=O)c3ccccc3)c2)c1 [Compound 2a, N-(3-((4-(3-(3-Methoxyphenyl)-1-phenyl-1H-pyrazol-4-yl)pyridin-2-yl)amino)propyl) benzenesulfonamide]
melting point: 119 to 120 °C

COc1ccc(S(=O)(=O)NCCCNc2cc(-c3cn(-c4ccccc4)nc3-c3cccc(OC)c3)ccn2)cc1 [Compound 2e, 4-Methoxy-N-(3-((4-(3-(3-methoxyphenyl)-1-phenyl-1H-pyrazol-4-yl)pyridin-2-yl)amino)propyl)benzenesulfonamide]
melting point: 124 to 126 °C

COc1cccc(-c2nn(-c3ccccc3)cc2-c2ccnc(NCCCNS(=O)(=O)c3ccc(C)cc3)c2)c1 [Compound 2f, N-(3-((4-(3-(3-Methoxyphenyl)-1-phenyl-1H-pyrazol-4-yl)pyridin-2-yl)amino)propyl)-4-methylbenzenesulfonamide]
melting point: 94 to 96 °C

COc1cccc(-c2nn(-c3ccccc3)cc2-c2ccnc(NCCCNS(=O)(=O)c3cccc4ccccc34)c2)c1 [Compound 2i, N-(3-((4-(3-(3-Methoxyphenyl)-1-phenyl-1H-pyrazol-4-yl)pyridin-2-yl)amino)propyl) naphthalene-1-sulfonamide]
melting point: 134 to 136 °C

O=S(=O)(NCCCNc1cc(-c2cn(-c3ccccc3)nc2-c2cccc(O)c2)ccn1)c1ccccc1 [Compound 2j, N-(3-((4-(3-(3-Hydroxyphenyl)-1-phenyl-1H-pyrazol-4-yl)pyridin-2-yl)amino)propyl) benzenesulfonamide]
melting point: 154 to 156 °C

Cc1ccc(S(=O)(=O)NCCCNc2cc(-c3cn(-c4ccccc4)nc3-c3cccc(O)c3)ccn2)cc1 [Compound 2n, N-(3-((4-(3-(3-Hydroxyphenyl)-1-phenyl-1H-pyrazol-4-yl)pyridin-2-yl)amino)propyl)-4-methylbenzenesulfonamide]
melting point: 158 to 160 °C

COc1ccc([C@@H]2Sc3ccccc3N(CCN(C)C)C(=O)[C@@H]2OC(C)=O)cc1 [Diltiazem]
Plasma stability, remaining unchanged (Plasma stability; Human plasma, 30 min): 91.5%
Plasma stability, remaining unchanged (Plasma stability; Human plasma, 30 min, listed as diltiazem): 91.5%
Plasma stability, remaining unchanged (Plasma stability; Human plasma, 120 min): 89.3%
Plasma stability, remaining unchanged (Plasma stability; Human plasma, 120 min, listed as diltiazem): 89.3%
Plasma stability, remaining unchanged (Plasma stability; Rat plasma, 30 min): 86.3%
Plasma stability, remaining unchanged (Plasma stability; Rat plasma, 120 min): 45.4%

CCN(CC)CCOC(=O)c1ccc(N)cc1 [Procaine]
Plasma stability, remaining unchanged (Plasma stability; Human plasma, 30 min): 1.2%
Plasma stability, remaining unchanged (Plasma stability; Human plasma, 30 min, listed as procaine): 1.2%
Plasma stability, remaining unchanged (Plasma stability; Human plasma, 120 min): 0.2%
Plasma stability, remaining unchanged (Plasma stability; Human plasma, 120 min, listed as procaine): 0.2%
Plasma stability, remaining unchanged (Plasma stability; Rat plasma, 30 min): 89.9%
Plasma stability, remaining unchanged (Plasma stability; Rat plasma, 120 min): 42.7%

CNC(=O)c1cc(Oc2ccc(NC(=O)Nc3ccc(Cl)c(C(F)(F)F)c3)cc2)ccn1 [Sorafenib, reference compound]
IC50 ([1]; Homo sapiens): 1.85 µM
IC50 ([3]; Homo sapiens, U-251): 2.51 µM
IC50 ([4]; Homo sapiens): 1.25 µM
IC50 ([5]; Homo sapiens): 2.51 µM
IC50 ([8]; Homo sapiens): 2.51 µM
IC50 ([9]; Homo sapiens): 1.99 µM
IC50 (renal cancer cell lines): 2.89 µM
IC50 [10]: 2.11 µM
IC50 (Leukaemia cell lines): 2.23 µM
IC50 (breast cancer cell lines): 2.15 µM
IC50 (melanoma cell lines): 8.57 µM
IC50 (CNS cancer cell lines): 2.51 µM
IC50 (colon cancer cell lines): 2.35 µM
IC50 [11]: 3.16 µM
IC50 [12]: 2.77 µM

Source: article PMC6211260 (Journal of Enzyme Inhibition and Medicinal Chemistry, 2018)
